Patent publication US20210085688A1, “PHARMACEUTICAL COMBINATIONS OF EGFR INHIBITORS AND METHODS OF USE THEREOF” (DANA-FARBER CANCER INSTITUTE, INC., priority 2018, published 2021)
Like-named read-outs stand apart in the source and are kept apart here.

Target: EGFR T790M/L858R Ba/F3 cell line (Homo sapiens, UniProt P00533, T790M/L858R, cells depend on it)
Assay: Ba/F3 cell proliferation (MTS assay), EGFR T790M/L858R
Type: cell-based, murine
Method: The EGFR mutant L858R, Del E746_A750, L858R/T790M, DelE746_A750/T790M, L858R/T790M/C797S and Del/T790M/C797S Ba/F3 cells were previously described (Zhou et al., Nature 462, (2009), 1070-1074). All cell lines were maintained in RPMI 1640 (Cellgro; Mediatech Inc., Herndon, Calif.) supplemented with 10% FBS 100 units/mL penicillin, 100 units/mL streptomycin, and 2 mM glutamine. L858R cells were maintained in ACL-4 media (Invitrogen, Carlsbad, Calif.) supplemented with 5% FBS, 100 units/mL penicillin, 100 units/mL streptomycin, and 2 mM glutamine. The EGFR I941R mutation was introduced via site directed mutagenesis using the Quick Change Site-Directed Mutagenesis kit (Stratagene; La Jolla, Calif.) according to the manufacturer's instructions. All constructs were confirmed by DNA sequencing. The constructs were shuttled into the retroviral vector JP1540 using the BD Creator™ System (BD Biosciences). Ba/F3 cells were infected with retrovirus and according to standard protocols, as described previously (Zhou 2009). Stable clones were obtained by selection in puromycin (2 μg/ml).
Growth and inhibition of growth was assessed by MTS assay and was performed according to previously established methods (Zhou 2009). The MTS assay is a colorimetric method for determining the number of viable cells that is based on the bioreduction of MTS by cells to a formazan product that is soluble in cell culture medium and can be detected spectrophotometrically. […] All experimental points were set up in six wells and all experiments were repeated at least three times. […] The curves were fitted using a non-linear regression model with a sigmoidal dose response.

[1] = absence of cetuximab, read-out: Ba/F3 cellular activity (EC50) T790M/L858R
[2] = read-out: Ba/F3 cellular activity (EC50) T790M/L858R + Cetuximab, presence of 1 μg/mL cetuximab

Chain of EGFR T790M/L858R Ba/F3 cell line (P00533 whole entry T790M/L858R): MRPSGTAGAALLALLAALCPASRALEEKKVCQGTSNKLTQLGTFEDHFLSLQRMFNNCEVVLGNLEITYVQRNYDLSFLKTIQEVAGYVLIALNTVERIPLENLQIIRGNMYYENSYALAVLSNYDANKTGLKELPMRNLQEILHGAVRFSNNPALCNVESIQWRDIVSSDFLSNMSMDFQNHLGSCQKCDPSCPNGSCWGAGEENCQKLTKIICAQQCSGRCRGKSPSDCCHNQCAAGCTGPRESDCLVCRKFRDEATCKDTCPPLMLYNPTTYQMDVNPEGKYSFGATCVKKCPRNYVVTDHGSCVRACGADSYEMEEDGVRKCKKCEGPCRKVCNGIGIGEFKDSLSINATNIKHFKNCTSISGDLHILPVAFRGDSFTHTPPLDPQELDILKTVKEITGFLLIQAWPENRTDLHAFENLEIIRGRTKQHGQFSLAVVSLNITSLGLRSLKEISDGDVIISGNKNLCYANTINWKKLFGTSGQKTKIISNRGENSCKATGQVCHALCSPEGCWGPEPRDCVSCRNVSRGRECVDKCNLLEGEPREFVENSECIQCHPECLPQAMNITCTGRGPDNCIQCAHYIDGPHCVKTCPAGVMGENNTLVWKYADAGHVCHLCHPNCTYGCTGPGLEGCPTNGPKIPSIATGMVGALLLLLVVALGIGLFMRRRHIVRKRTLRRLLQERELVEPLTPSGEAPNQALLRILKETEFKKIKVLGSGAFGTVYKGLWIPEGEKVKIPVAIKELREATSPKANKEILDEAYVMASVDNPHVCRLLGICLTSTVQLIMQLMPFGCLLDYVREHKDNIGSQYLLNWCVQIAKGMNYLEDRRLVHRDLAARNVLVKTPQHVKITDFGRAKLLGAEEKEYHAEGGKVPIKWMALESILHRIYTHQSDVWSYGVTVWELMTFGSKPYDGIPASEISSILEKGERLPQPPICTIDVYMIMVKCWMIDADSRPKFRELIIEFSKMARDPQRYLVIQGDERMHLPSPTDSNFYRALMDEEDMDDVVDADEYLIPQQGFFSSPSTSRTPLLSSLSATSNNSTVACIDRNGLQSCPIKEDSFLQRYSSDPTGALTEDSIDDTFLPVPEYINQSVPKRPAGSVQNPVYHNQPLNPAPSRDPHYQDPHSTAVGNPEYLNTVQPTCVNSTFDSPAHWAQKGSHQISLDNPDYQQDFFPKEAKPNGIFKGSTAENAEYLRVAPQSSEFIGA

EC50 [1] [nM] | EC50 [2] [nM] | SMILES
≥ 750 | 500 to 750 | C=CC(=O)Nc1ccc2c(c1)N(Cc1ccccc1)C(=O)c1cc(-c3ccc4[nH]ccc4c3)ccc1N2 [Compound I-1]
< 250 | < 250 | O=C(CCl)Nc1ccc2c(c1)N(Cc1ccccc1)C(=O)c1cc(-c3ccc4[nH]ccc4c3)ccc1N2 [Compound I-2]
≥ 750 | ≥ 750 | C=CC(=O)Nc1ccc2c(c1)N(Cc1ccccc1)C(=O)c1cc(-c3ccc(N4CCNCC4)cc3)ccc1N2 [Compound I-3, N-(10-Benzyl-11-oxo-2-(4-(piperazin-1-yl)phenyl)-10,11-dihydro-5H-dibenzo[b,e][1,4]diazepin-8-yl)acrylamide]
≥ 750 | 250 to 500 | O=C1c2cc(Br)ccc2Nc2ccc(F)cc2N1Cc1ccccc1 [I-a, 10-Benzyl-2-bromo-8-fluoro-5,10-dihydro-11H-dibenzo[b,e][1,4]diazepin-11-one]
